Results as given in PubChem BioAssay (NCI).
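These data come from cells grown in 96-well plates and exposed to compound for 48 hours at five concentrations. Here, GI50 denotes the concentration required for 50% inhibition of growth. TGI marks complete inhibition of growth.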

How the values were obtained:
Experiment in all cases: NCI-60 cell line screen, 48 h
OVCAR-8 ovarian = system: OVCAR-8 ovarian
HCT-15 colon = system: HCT-15 colon
KM12 colon = system: KM12 colon
HT29 colon = system: HT29 colon
CCRF-CEM leukemia = system: CCRF-CEM leukemia
RPMI-8226 leukemia = system: RPMI-8226 leukemia
SNB-19 CNS = system: SNB-19 CNS
OVCAR-4 ovarian = system: OVCAR-4 ovarian
NCI/ADR-RES ovarian = system: NCI/ADR-RES ovarian
MALME-3M melanoma = system: MALME-3M melanoma
786-0 renal = system: 786-0 renal
MCF7 breast = system: MCF7 breast
OVCAR-3 ovarian = system: OVCAR-3 ovarian
HS 578T breast = system: HS 578T breast
MOLT-4 leukemia = system: MOLT-4 leukemia
A549 NSCLC = system: A549 NSCLC
CAKI-1 renal = system: CAKI-1 renal
SK-MEL-5 melanoma = system: SK-MEL-5 melanoma
NCI-H522 lung = system: NCI-H522 lung
DU-145 prostate = system: DU-145 prostate
LOX IMVI melanoma = system: LOX IMVI melanoma
NCI-H460 lung = system: NCI-H460 lung
MDA-MB-231 breast = system: MDA-MB-231 breast
UO-31 renal = system: UO-31 renal
NCI-H23 lung = system: NCI-H23 lung
SK-MEL-28 melanoma = system: SK-MEL-28 melanoma
UACC-62 melanoma = system: UACC-62 melanoma
MDA-MB-435 = system: MDA-MB-435
SK-MEL-2 melanoma = system: SK-MEL-2 melanoma
HL-60(TB) leukemia = system: HL-60(TB) leukemia
HCC-2998 colon = system: HCC-2998 colon
T-47D breast = system: T-47D breast
SF-268 CNS = system: SF-268 CNS
COLO 205 colon = system: COLO 205 colon
HOP-92 NSCLC = system: HOP-92 NSCLC
SR leukemia = system: SR leukemia
SK-OV-3 ovarian = system: SK-OV-3 ovarian
HOP-62 NSCLC = system: HOP-62 NSCLC
ACHN renal = system: ACHN renal
A498 renal = system: A498 renal
SN12C renal = system: SN12C renal
SF-539 CNS = system: SF-539 CNS
M14 melanoma = system: M14 melanoma
SNB-75 CNS = system: SNB-75 CNS
K-562 leukemia = system: K-562 leukemia
TK-10 renal = system: TK-10 renal
IGROV1 ovarian = system: IGROV1 ovarian
PC-3 prostate = system: PC-3 prostate
NCI-H226 lung = system: NCI-H226 lung
U251 CNS = system: U251 CNS
UACC-257 melanoma = system: UACC-257 melanoma
SF-295 CNS = system: SF-295 CNS
OVCAR-5 ovarian = system: OVCAR-5 ovarian
RXF 393 renal = system: RXF 393 renal
BT-549 breast = system: BT-549 breast
SW-620 colon = system: SW-620 colon
HCT-116 colon = system: HCT-116 colon
EKVX NSCLC = system: EKVX NSCLC

## CCN(Cc1c(F)cccc1C(F)(F)F)c1ccc(CO)c(Cl)c1
OVCAR-8 ovarian
  GI50: 14.6 µM
  TGI: 31.3 µM
HCT-15 colon
  GI50: 12.8 µM
  TGI: 27.1 µM
KM12 colon
  GI50: 14.1 µM
  TGI: 29.4 µM
HT29 colon
  GI50: 2.99 µM
  TGI: 17.7 µM
CCRF-CEM leukemia
  GI50: 15.7 µM
  TGI: 36.1 µM
RPMI-8226 leukemia
  GI50: 1.47 µM
  TGI: 21.9 µM
SNB-19 CNS
  GI50: 14.9 µM
  TGI: 29.1 µM
OVCAR-4 ovarian
  GI50: 0.132 µM
  TGI: 9.9 µM
NCI/ADR-RES ovarian
  GI50: 14.7 µM
  TGI: 32.1 µM
MALME-3M melanoma
  GI50: 15.2 µM
  TGI: 30.1 µM
786-0 renal
  GI50: 15.9 µM
  TGI: 30.9 µM
MCF7 breast
  GI50: 0.156 µM
  TGI: 15.7 µM
OVCAR-3 ovarian
  GI50: 0.261 µM
  TGI: 4.9 µM
HS 578T breast
  GI50: 18.3 µM
  TGI: 42.1 µM
MOLT-4 leukemia
  GI50: 16.5 µM
  TGI: 37.1 µM
A549 NSCLC
  GI50: 5.56 µM
  TGI: 23.1 µM
CAKI-1 renal
  GI50: 10.2 µM
  TGI: 24.2 µM
SK-MEL-5 melanoma
  GI50: 7.81 µM
  TGI: 23.2 µM
NCI-H522 lung
  GI50: 12.6 µM
  TGI: 27 µM
DU-145 prostate
  GI50: 15.9 µM
  TGI: 29.8 µM
LOX IMVI melanoma
  GI50: 18.1 µM
  TGI: 33.3 µM
NCI-H460 lung
  GI50: 0.0894 µM
  TGI: 17.2 µM
MDA-MB-231 breast
  GI50: 14.6 µM
  TGI: 28.3 µM
UO-31 renal
  GI50: 14.6 µM
  TGI: 28.3 µM
NCI-H23 lung
  GI50: 14.4 µM
  TGI: 31.7 µM
SK-MEL-28 melanoma
  GI50: 13.9 µM
  TGI: 27.6 µM
UACC-62 melanoma
  TGI: 12.6 µM
MDA-MB-435
  GI50: 14.2 µM
  TGI: 28.3 µM
SK-MEL-2 melanoma
  GI50: 3.33 µM
  TGI: 24.5 µM
HL-60(TB) leukemia
  GI50: 15.9 µM
  TGI: 36.9 µM
HCC-2998 colon
  GI50: 16.7 µM
  TGI: 33 µM
T-47D breast
  GI50: < 0.0249 µM
  TGI: 0.285 µM
SF-268 CNS
  GI50: 16.6 µM
  TGI: 31.5 µM
COLO 205 colon
  GI50: 2.44 µM
  TGI: 14 µM
HOP-92 NSCLC
  GI50: 0.856 µM
  TGI: 16 µM
SR leukemia
  GI50: 14.5 µM
  TGI: 36.5 µM
SK-OV-3 ovarian
  GI50: 13.7 µM
  TGI: 26.8 µM
HOP-62 NSCLC
  GI50: 13.7 µM
  TGI: 26.6 µM
ACHN renal
  GI50: 15 µM
  TGI: 28.6 µM
A498 renal
  GI50: < 0.0191 µM
  TGI: 0.0463 µM
SN12C renal
  GI50: 13 µM
  TGI: 26.2 µM
SF-539 CNS
  GI50: 15.6 µM
  TGI: 29.4 µM
M14 melanoma
  GI50: 17.4 µM
  TGI: 33.4 µM
SNB-75 CNS
  GI50: 12.5 µM
  TGI: 26.4 µM
K-562 leukemia
  GI50: 0.692 µM
  TGI: 13 µM
TK-10 renal
  GI50: 0.0682 µM
  TGI: 0.322 µM
IGROV1 ovarian
  GI50: < 0.0338 µM
PC-3 prostate
  GI50: 12.3 µM
  TGI: 25.3 µM
NCI-H226 lung
  GI50: 0.035 µM
  TGI: 0.154 µM
U251 CNS
  GI50: 0.623 µM
  TGI: 17.5 µM
UACC-257 melanoma
  GI50: < 0.0407 µM
  TGI: 0.187 µM
SF-295 CNS
  TGI: 1.12 µM
OVCAR-5 ovarian
  GI50: < 0.0249 µM
  TGI: 0.205 µM
RXF 393 renal
  GI50: 12.6 µM
  TGI: 28.5 µM
BT-549 breast
  GI50: 17.7 µM
  TGI: 32 µM
SW-620 colon
  GI50: 0.79 µM
  TGI: 20.4 µM
HCT-116 colon
  GI50: < 0.0371 µM
  TGI: 11.8 µM

## CC(C)Cc1cc(-c2cccn2C)c(C#N)c(=O)[nH]1
OVCAR-8 ovarian
  GI50: > 100 µM
  TGI: > 100 µM
HCT-15 colon
  GI50: > 100 µM
  TGI: > 100 µM
KM12 colon
  GI50: > 100 µM
  TGI: > 100 µM
HT29 colon
  GI50: > 100 µM
  TGI: > 100 µM
CCRF-CEM leukemia
  GI50: 23.4 µM
  TGI: > 100 µM
RPMI-8226 leukemia
  GI50: > 100 µM
  TGI: > 100 µM
SNB-19 CNS
  GI50: > 100 µM
  TGI: > 100 µM
OVCAR-4 ovarian
  GI50: 69.4 µM
  TGI: > 100 µM
NCI/ADR-RES ovarian
  GI50: > 100 µM
  TGI: > 100 µM
MALME-3M melanoma
  GI50: > 100 µM
  TGI: > 100 µM
786-0 renal
  GI50: > 100 µM
  TGI: > 100 µM
MCF7 breast
  GI50: > 100 µM
  TGI: > 100 µM
OVCAR-3 ovarian
  GI50: > 100 µM
  TGI: > 100 µM
HS 578T breast
  GI50: > 100 µM
  TGI: > 100 µM
MOLT-4 leukemia
  GI50: 22.5 µM
  TGI: > 100 µM
A549 NSCLC
  GI50: > 100 µM
  TGI: > 100 µM
EKVX NSCLC
  GI50: > 100 µM
  TGI: > 100 µM
CAKI-1 renal
  GI50: > 100 µM
  TGI: > 100 µM
SK-MEL-5 melanoma
  GI50: > 100 µM
  TGI: > 100 µM
NCI-H522 lung
  GI50: > 100 µM
  TGI: > 100 µM
DU-145 prostate
  GI50: > 100 µM
  TGI: > 100 µM
LOX IMVI melanoma
  GI50: > 100 µM
  TGI: > 100 µM
NCI-H460 lung
  GI50: > 100 µM
  TGI: > 100 µM
MDA-MB-231 breast
  GI50: > 100 µM
  TGI: > 100 µM
UO-31 renal
  GI50: > 100 µM
  TGI: > 100 µM
NCI-H23 lung
  GI50: > 100 µM
  TGI: > 100 µM
SK-MEL-28 melanoma
  GI50: > 100 µM
  TGI: > 100 µM
UACC-62 melanoma
  GI50: > 100 µM
  TGI: > 100 µM
MDA-MB-435
  GI50: > 100 µM
  TGI: > 100 µM
SK-MEL-2 melanoma
  GI50: > 100 µM
  TGI: > 100 µM
HL-60(TB) leukemia
  GI50: 45.8 µM
  TGI: > 100 µM
HCC-2998 colon
  GI50: > 100 µM
  TGI: > 100 µM
T-47D breast
  GI50: > 100 µM
  TGI: > 100 µM
SF-268 CNS
  GI50: > 100 µM
  TGI: > 100 µM
COLO 205 colon
  GI50: > 100 µM
  TGI: > 100 µM
HOP-92 NSCLC
  GI50: > 100 µM
  TGI: > 100 µM
SR leukemia
  GI50: 59.7 µM
  TGI: > 100 µM
SK-OV-3 ovarian
  GI50: > 100 µM
  TGI: > 100 µM
HOP-62 NSCLC
  GI50: > 100 µM
  TGI: > 100 µM
ACHN renal
  GI50: > 100 µM
  TGI: > 100 µM
A498 renal
  GI50: > 100 µM
  TGI: > 100 µM
SN12C renal
  GI50: > 100 µM
  TGI: > 100 µM
SF-539 CNS
  GI50: > 100 µM
  TGI: > 100 µM
SNB-75 CNS
  GI50: 40.1 µM
  TGI: > 100 µM
K-562 leukemia
  GI50: > 100 µM
  TGI: > 100 µM
TK-10 renal
  GI50: > 100 µM
  TGI: > 100 µM
IGROV1 ovarian
  GI50: > 100 µM
  TGI: > 100 µM
PC-3 prostate
  GI50: > 100 µM
  TGI: > 100 µM
NCI-H226 lung
  GI50: > 100 µM
  TGI: > 100 µM
U251 CNS
  GI50: > 100 µM
  TGI: > 100 µM
UACC-257 melanoma
  GI50: > 100 µM
  TGI: > 100 µM
SF-295 CNS
  GI50: > 100 µM
  TGI: > 100 µM
OVCAR-5 ovarian
  GI50: > 100 µM
  TGI: > 100 µM
RXF 393 renal
  GI50: > 100 µM
  TGI: > 100 µM
BT-549 breast
  GI50: > 100 µM
  TGI: > 100 µM
SW-620 colon
  GI50: > 100 µM
  TGI: > 100 µM
HCT-116 colon
  GI50: > 100 µM
  TGI: > 100 µM
